From ChEMBL document CHEMBL3132742, “Hydrogen sulfide donors in research and drug development” (2014)

Assays:
HT-29 [1] = assay: Anticancer activity against human HT-29 cells xenografted in mouse model assessed as reduction in tumor volume relative to control; type: functional
HT-29 [2] = assay: Anticancer activity against human HT-29 cells xenografted in mouse model assessed as suppression of cancer cell growth relative to control; type: functional

SMILES: O=C(CCCO[N+](=O)[O-])Oc1ccccc1C(=O)Oc1ccc(-c2cc(=S)ss2)cc1
- inhibition (INH) (HT-29 [1]): 85%
- fold change (FC) (HT-29 [2]): 9000
